Measured values reported in patent US10834950B2, “Organic compounds” (GIVAUDAN SA, priority 2013, dated 2020).

How the values were obtained:
[1] = Umami base flavour (aqueous NaCl, MSG, ribonucleotides) tasting by panel
[2] = Beef bouillon tasting by a panel of experienced tasters; settings: 40 ppb added to beef bouillon
Experimental: A beef bouillon was prepared using bouillon cubes obtained from a local supermarket.

[3] = Milk drink (semi skim milk) tasting by panel; settings: 5 ppm added to semi skim milk drink
[4] = Diluted soy sauce tasting by panel; settings: 5 ppm added to diluted soy sauce
[5] = 5 ppm added to umami base flavour

In the case of `CCCCCCCCCCCC(=O)NC(Cc1ccccc1)C(=O)O` (stereo not drawn) [Example 3, 2-(Dodecanoylamino)-3-phenylpropanoic acid], the “taste of umami base compared to the reference (panel)” value ([1]; 50 ppm added to umami base flavour) is reported as “more umami, and thicker, possessed a lot of mouthfeel and a nice body, and provided a cleaner taste than the reference”.
With `CCCCCC/C=C\CCCC(=O)NC(Cc1ccc(O)cc1)C(=O)O` (stereo not drawn) [Example 2, (Z)-2-(Dodec-5-enamido)-3-(4-hydroxyphenyl)propanoic acid] the “taste of bouillon compared to the reference (panel)” value [2] was “slightly more umami, slightly more bitter and sweeter than the reference”.
In the case of `CCCCCCCCCCCC(=O)NC(Cc1c[nH]c2ccccc12)C(=O)O` (stereo not drawn) [2-(dodecanoylamino)-3-(1H-indol-3-yl)propanoic acid], the “taste of umami base compared to the reference (panel)” value ([1]; 20 ppm added to umami base flavour) is reported as “more fatty mouthfeel than the reference”.
With `CCCCCCCCCCCCCC(=O)NC(Cc1c[nH]c2ccccc12)C(=O)O` (stereo not drawn) [3-(1H-indol-3-yl)-2-tetradecanamidopropanoic acid] the “taste of umami base compared to the reference (panel)” value [1, 5] was “more umami than the reference”, the “taste of milk drink compared to the reference (panel)” value [3] was “very creamy aftertaste, and a nice and slightly dryness at the front compared to the reference” and the “taste of soy sauce compared to the reference (panel)” value [4] was “more mouthfeel, and fuller compared to the reference”.
For `CCCCCC/C=C\CCCC(=O)NC(Cc1ccccc1)C(=O)O` (stereo not drawn) [Example 1, (Z)-2-(Dodec-5-enamido)-3-phenylpropanoic acid], the “taste of bouillon compared to the reference (panel)” value [2] was “more umami, slightly more sweet, and the overall flavor profile lasts longer than the reference”.
For `CCCCCC/C=C\CCCC(=O)NC(Cc1c[nH]c2ccccc12)C(=O)O` (stereo not drawn) [(Z)-2-(dodec-5-enamido)-3-(1H-indol-3-yl)propanoic acid], the “taste of umami base compared to the reference (panel)” value [1, 5] was “more umami than the reference” and the “taste of milk drink compared to the reference (panel)” value [3] was “slightly increased creamy than the reference”.
